Assay results from patent US20240091169A1, “POL[…] FOR TREATING INFLAMMATORY DISEASES” (UNIVERSITY OF SOUTH CAROLINA, priority 2022, published 2024).

How the values were obtained:
C26 CRC cells = assay: CCK-8 cell viability of C26 CRC cells; format: cell-based; conditions: 24 hr, read-out: IC50, anti-proliferative activity against C26 CRC cells
Method: BMDMs were isolated as described above. On day 6 of maturation, BMDMs were subjected to 7 concentrations of PA to assess cell death: 0.001, 0.01, 0.1, 1.0, 5.0, 10.0, and 100.0 μM. On day 7 (i.e., 24 hr-post PA treatment), CCK-8 (Dojindo; Cat #CK04) assays were completed per manufacturer's instructions. C26 CRC cells were also subjected to these 7 concentrations of PA for 24 hr to assess cell death using CCK-8. Three independent experiments were carried out.

[1] = tested on: BMDMs treated with C26 CM; assay: Survival of BMDMs cultured with C26 tumor conditioned media; format: cell-based, C57BL/6 mice; conditions: 48 hr
Method: Bone marrow-derived macrophages (BMDMs) were isolated from healthy 10-14-week-old C57BL/6 male mice. Briefly, mice were euthanized by isoflurane overdose. Femurs were cleared of muscle and debris. The epiphyses of the femurs were cut and placed knee-down and spun down in a 1.5 mL tube. Bone marrow was collected and resuspended in complete DMEM (cDMEM; 10% FBS, 1% penicillin/streptomycin) and passed through two 100 μm strainers. Cells were plated on an untreated 10 cm dish in cDMEM and allowed to incubate at 37° C. for 4 hr. Adherent/mature monocytes and dendritic cells were discarded, while floating/immature monocytes were collected. Cells were subjected to RBC lysis and resuspended in bone marrow maintenance media (BMMM; 20% L929-conditioned media in cDMEM). Cells were then plated on surface-treated 6-well plates at a 250 k cells/well seeding density. On day 3, fresh BMMM was added. On day 5, media was aspirated and fresh BMMM was added. […] Cells were stained and analyzed for macrophages via flow cytometry as described above with the addition of analyzing macrophage phenotypes. From the CD11b^+CD68^+ macrophage population, macrophage phenotypes were determined based on CD206 and CD11c expression. […] All cells were measured using a FACS Aria II (BD) and analyzed using FlowJo (BD Biosciences). […]

[2] = tested on: DSS-induced chronic colitis; assay: DSS mouse model, Experiment 1: chronic colitis; format: in vivo, C57BL/6 female mice
Method: Experiment 1—Chronic Colitis: 14-week-old C57BL/6 female mice were given 3 cycles of DSS. Each cycle consisted of 7 days on DSS (cycle 1: 1%; cycle 2: 1.5%, cycle 3: 1%), immediately followed by 7 days of regular drinking water. Either vehicle or panaxynol was administered 3×/week beginning on the day prior to the first DSS cycle (day −1) until study completion (FIG. 9A). To ensure the induction of colitis and to quantify disease states, colitis symptoms were monitored 3×/week using a pre-established disease activity index (DAI), which quantifies bodyweight loss, stool consistency, and rectal bleeding to produce an overall symptom score; a higher score correlates with worsened disease. Mice were euthanized on day 42—one day after the last dose of panaxynol was given. Data presented in FIG. 9A-9F was obtained from 2 cohorts of Experiment 1—Chronic Colitis.
Panaxynol (PA; C17H24O) was purchased from Biopurify Pytochemicals Ltd in sealed 5 mg/mL vials in pure 95% ethanol and stored at −20° C. PA was prepared fresh on the day of treatment by diluting in H2O to 1 mg/mL for administration (p.o.) at a dosage of 2.5 mg/kg. This dosage was chosen following a pilot dose-response study to determine PA's efficacy. PA or VEH was administered 3×/week via oral gavage using flexible plastic tubing gavage needles (Instech, Cat #FTP-20) for a total of 12 weeks.
All mice underwent the same symptom monitoring and scoring. Body weights and symptom scores were determined […] to quantify disease state, with a higher score indicative of a worsened disease state. Symptom scores were calculated by scoring percent body weight loss, stool consistency, and rectal bleeding as previously described. Briefly, fresh colonic evacuates were smeared onto “Hemoccult” tape (Beckman Coulter) to assess severity of diarrhea and were tested with developer (Beckman Coulter) to assess rectal bleeding. Stool consistency was scored as follows: solid cylinder (0), soft cylinder and easily spreadable (2), and noncylindrical or runny (4). Bleeding was scored as follows: no positive detection of blood (0), detection of blood but not grossly visible (2), and gross visibility of blood (4). Body weight was calculated as percent bodyweight loss: 0%-5% (0), 6%-10% (1), 11%-15% (2), 15%-20% (3), 20%-25% (4), and >25% (5). Scores of all three categories were summed to obtain an overall symptom score for each mouse.
Prior to euthanasia, colonoscopies were performed (n=3/group) to visualize the colonic tissue and quantify the severity of disease (colitis and colorectal tumors) using an established protocol. Briefly, mice were anesthetized with isoflurane to perform a detailed endoscopic examination in which the endoscope was gently inserted into the rectum and through the anus. Air was applied to slowly set apart the intestinal walls for examination. As the scope advanced, pictures were taken frequently and the following were meticulously assessed and scored by the blinded primary investigator using the well-established scoring system to integrate evaluation of intestinal inflammation (i.e., focal lesions (edematous areas of mucosa, erosions/reddened areas, ulcers), perianal region findings (diarrhea, bloody anal discharge, or prolapse), transparency of the colonic wall (visualization of the intramural blood vessels), and presence of intestinal bleeding) and tumors. Scoring was performed as previously described with no modifications. Upon completion of colonoscopies, mice were placed on a warm pad set at 37° C. for 5 min.

With C=CC(O)C#CC#CC/C=C\CCCCCCC (stereo in doubt) [PA, 3(R)-(9Z)-heptadeca-1,9-dien-4,6-diyn-3-ol] the IC50 (C26 CRC cells) was 1000 nM, the “reduction of macrophage survival” value ([1]; 1 μM PA) was 31.5% and the “reduction of macrophage survival” value ([1]; 5 μM PA) was 45.3%. For the same molecule, the rectal bleeding ([2]; DAI, vs DSS+Veh) was “decreased”, the stool consistency ([2]; DAI, vs DSS+Veh) was “improved” and the “reduction in ulcerations (endoscopic score)” value ([2]; day 42, vs DSS+Veh, p=0.001) was 65%. For the same molecule, the “reduction in total lesions (endoscopic score)” value ([2]; day 42, vs DSS+Veh, p=0.005) was 70%, the “reduction in inflammation (endoscopic score)” value ([2]; day 42, vs DSS+Veh, p=0.016) was 54% and the “reduction in total endoscopic scores” value ([2]; day 42, vs DSS+Veh, p=0.016) was 52%. For the same molecule, the “reduction in erosions (endoscopic score)” value ([2]; day 42, vs DSS+Veh, p=0.017) was 74%, the body weight ([2]; end of study, not significant vs DSS+Veh 20.7±0.4, p=0.862) was 20.3 ± 0.7 g and the DAI scores ([2]; throughout treatment, vs DSS+Veh) was “significantly (p≤0.05) improved”.
